Measurements as given in PMC7502707, “Characterization and validation of a preventative therapy for hypertrophic cardiomyopathy in a murine model of the disease” (Proceedings of the National Academy of Sciences of the …, 2020).

Key:
[1] = tested on: cardiac L-type calcium channel (ICa-L); parameters: method as in PMID 19166857, PMID 24969422, PMID 24958783; conditions: wt myocytes; cited from earlier work
[2] = tested on: wt and cTnI-G203S cardiac myocytes; experiment: Mitochondrial flavoprotein oxidation (autofluorescence) after in vitro peptide exposure; type: cell-based, mouse; conditions: 10 μM BayK(−)
Method: Fluorescence was measured on a Hamamatsu Orca ER digital camera attached to an inverted Nikon TE2000-U microscope. Fluorescent indicator 5,5′,6,6′-tetrachloro-1,1′,3,3′-tetraethylbenzimidazolylcarbocyanine iodide was used to measure Ψm in cardiac myocytes, as previously described (JC-1, Molecular Probes) ([61]). Autofluorescence was used to measure flavoprotein oxidation in cardiac myocytes based on previously described methods ([13], [29], [62]). Responses to drugs were reported as a percentage increase from the basal average. Detailed methods are provided in SI Appendix. […]
Autofluorescence […]
was used to measure flavoprotein oxidation in cardiac myocytes based on previously described methods (ex = 480 nm, em = 535 nm, interval = 1 min, exposure = 1.5 seconds) (4, 6, 7). Carbonyl cyanide-4-(trifluoromethoxy)phenylhydrazone (FCCP, 50 μM, mitochondrial electron transport chain uncoupler) was added at the end of each experiment to increase flavoprotein oxidation confirming signal was mitochondrial in origin. Ratiometric JC-1 or flavoprotein fluorescent signals were quantified by manually tracing myocytes and subtracting an equivalent background region […]
Responses to drugs were reported as a percentage increase from the basal average. […]
(10). Cardiac myocytes were treated with relevant drugs in 96 well plates. MTT was added to each well to a final concentration of 0.5 mg/ml and the rate of the increase in absorbance immediately measured using a spectrophotometer at 37°C (PowerWave XS, 570 nm, reference wavelength of 620 nm). The rate of the increase in absorbance in response to treatments was expressed as a percentage of the rate of the increase prior to the addition of treatments. Each n represents number of replicates for each treatment group from cardiac myocytes isolated from a total of 6 wt (AID[S]- TAT), 4 cTnI-G203S (AID[S]-TAT), and 3 (AID-TAT) mice.
Immunoblot of ICa-L protein

BALB/c nude mice = conditions: mouse, in vivo
Method: Eight-week-old male BALB/c nude mice were used to assess in vivo cardiac uptake and bio-distribution of sulfo-Cyanine7-labeled AID(S)-TAT and AID-TAT (Cy7, W&J PharmaChem) using a CRi Maestro 2 multispectral imaging system (Cambridge Research and Instrumentation) based on previously described methods ([63]). All studies were performed in mice anesthetized with isoflurane (2 to 4%), followed by intraperitoneal injection of pentobarbitone sodium (240 mg/kg), as approved by the Animal Ethics Committee of The University of Western Australia in accordance with the 2013 Australian Code for the Care and Use of Animals for Scientific Purposes ([58]). Detailed methods are provided in SI Appendix.
50 ms, Molecular Probes, Eugene, Oregon) (5). Cells were incubated in calcium-free HBS (supplemented with 3 mM EGTA and 200 nM JC-1) for at least 3 h prior to measuring changes in Ψm. Sodium cyanide (NaCN, 40 mM, mitochondrial electron transport blocker) was added at the end of each experiment to collapse Ψm, confirming that the JC-1 signal was indicative of Ψm.
Additionally, individual 580 nm and 535 nm wavelength signals were assessed in each experiment to determine whether the fluorescent indicator was accurately measuring Ψm. […] Ratiometric JC-1 or flavoprotein fluorescent signals were quantified by manually tracing myocytes and subtracting an equivalent background region […]

QQLEEDLKGYLDWITQAE [AID-TAT]
inactivation rate of the cardiac ICa-L [1]: slows the inactivation rate
increase in flavoprotein oxidation in response to BayK(−) ([2]; cTnI-G203S myocytes, 1 μM peptide in vitro): attenuated the response
increase in flavoprotein oxidation in response to BayK(−) ([2]; cTnI-G203S myocytes, 10 μM peptide in vitro): significantly attenuated the response
increase in flavoprotein oxidation in response to BayK(−) ([2]; wt myocytes, 1 μM peptide in vitro): attenuated the response in cTnI-G203S but not wt myocytes
increase in flavoprotein oxidation in response to BayK(−) ([2]; wt myocytes, 10 μM peptide in vitro): significantly attenuated the response
Cy7 decay (clearance) in left or right kidney, or liver (BALB/c nude mice): no significant difference
